Active and inactive are the calls of the source.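 How the source made its calls: active means compounds giving half or more protection of infected cells from virus-caused growth loss, again on retest; inactive means the rest.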
Tested on: CEM cells HIV-1 protection, formazan growth assay
Experiment: NCI AIDS Antiviral Assay
Settings: for IC50: measured here: growth of uninfected CEM cells
Outline: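 CEM (human) cells, HIV-1 infected vs uninfected, 5-point dosing, formazan growth read-out. Retest threshold 50% protection.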

Structure (SMILES) | EC50 [µM] | IC50 [µM] | outcome
CC(=O)C(=[N+]=[N-])C(=O)N1CCOC1=O | > 200 | > 200 | 
N#CCCC[Si]12OCCN(CCO1)CCO2 |  |  | inactive
O=C(O)c1cc(Sc2ccc([N+](=O)[O-])c(C(=O)O)c2)ccc1[N+](=O)[O-] | > 200 | > 200 | 
COc1ccc(/C=C/C(=O)c2cc(Cl)cc(Cl)c2O)cc1OC | > 200 | 1.05 | 
O=C(O)OC12CCCCCC1C(=O)C1CCCCC12 (stereo not given) | > 200 | > 200 | 
Cn1cc(NC(=O)c2cc(NC(=O)CCCCCCCCCCC(=O)Nc3cc(C(=O)Nc4cc(C(=O)NCCC(=N)N)n(C)c4)n(C)c3)cn2C)cc1C(=O)NCCC(=N)N | 4.07 | 7.76 | 
CCN(CC)CCN1C(=O)c2cccc3c(N)c(OC)cc(c23)C1=O | > 200 | 3.39 | 
CC1=Nc2c(ccc3c2C(=O)c2ccccc2C3=O)NC(c2ccncc2)C1 (stereo not given) | > 7.41 | > 7.41 | 
Cc1ccc(C2=C(O)C(=O)C(c3ccc(C)cc3)=C(O)C2=O)cc1 | > 52.5 | 26.3 | 
CC1CN1P(=O)(OCCC#N)N1CC1C (stereo not given) | > 200 | > 200 | 
CCOC(=O)CCCNC(=O)c1ccccc1SC(=O)CCCC[n+]1ccccc1 | > 2 | 0.912 | 
O=[N+]([O-])c1ccc2c(c1)C(N1CCN(CCO)CC1)Cc1ccc(F)cc1S2 (stereo not given) | > 200 | 22.4 | 
CCOP(=O)(OCC)/C(C#N)=C/c1ccc2ccccc2c1 | > 22.9 | > 22.9 | 
N#Cc1nc(COCCOCc2ccccc2)oc1N | > 110 | 107 | 
CCN(CCCl)CCCCCNc1c2ccccc2nc2ccc(OC)cc12 |  |  | inactive
CN(C)Cc1cc(C(=O)/C=C/c2ccc(Cl)cc2Cl)cc(CN(C)C)c1O | > 200 | 3.8 | 
Cc1ccc(NC(=O)/C(CC(=O)c2c[n+](=O)c3ccccc3n2O)=N\NC(=O)C[n+]2ccccc2)cc1 | > 43.7 | > 43.7 | 
CC(=O)OCC1OC(Nc2nncs2)C(OC(C)=O)C1OC(C)=O (stereo not given) | > 692 | 562 | 
Cc1cc(C2(c3cc(C)c(O)c(CN(CC(=O)O)CC(=O)O)c3)OS(=O)(=O)c3ccccc32)cc(CN(CC(=O)O)CC(=O)O)c1O | 93.3 | > 100 | 
COc1ccc(-c2csc3c2-n2cccc2C3=O)cc1 | > 2 | 0.0363 | 
O=[N+]([O-])c1ccc(CSCc2ccc([N+](=O)[O-])cc2)cc1 | > 200 | > 200 | 
CC(NC(=O)C(NC(=O)C(NC(=O)C(F)(F)F)C(C)C)C(C)C)C(=O)Oc1c(Cl)c(Cl)c(Cl)c(Cl)c1Cl (stereo not given) | > 200 | 141 | 

Structure (SMILES) | EC50 [µM] | IC50 [µM] | outcome
CC1=NC(C)(COC(=O)C2(C)NC(C)(CO)CO2)COC1=O (stereo not given) | > 200 | > 200 | 
CCOc1cc2c(cc1O)/C(=N\N)C[C@@H]1[C@@H]2CC[C@]2(C)[C@@H](O)CC[C@@H]12 | > 2 | 0.209 | 
COC(=O)C1(C(=O)OC)N=C(C)OC1c1ccoc1 (stereo not given) | > 200 | > 200 | 
CN(c1ccc(Cl)cc1)S(=O)(=O)c1ccccc1 | > 200 | 50.1 | 
FC(F)C(F)(F)C(F)(F)C(F)(F)C(F)(F)C(F)(F)COC(OCC(F)(F)C(F)(F)C(F)(F)C(F)(F)C(F)(F)C(F)F)OCC(F)(F)C(F)(F)C(F)(F)C(F)(F)C(F)(F)C(F)F | > 200 | > 200 | 
Cc1cccc2c1[nH]c1[nH]c(=O)[nH]c(=O)c12 | > 200 | 151 | 
O=C(CC1SC(=Nc2ccccc2Cl)NC1=O)Nc1ccc(Cl)cc1 (stereo not given) | > 631 | > 200 | 
NC(N)=Nc1ccccc1SSc1ccccc1N=C(N)N | 8.13 | 52.5 | 
COc1cc2c3cc1Oc1c(O)c(OC)cc4c1C(Cc1ccc(O)c(c1)Oc1ccc(cc1)CC3N(C)CC2)N(C)CC4 (stereo not given) |  |  | inactive
O=C1C=C(Nc2ccccc2)c2ccccc2C1=O | > 11 | > 11 | 
CC[N+]1(C)CCC(O)(c2ccccc2)C(C(=O)c2ccccc2)C1 (stereo not given) |  |  | inactive
COc1cc2cnc3c4cc(OC(C)C)c(OC)cc4ccc3c2cc1OC |  |  | inactive
O=C1c2cc3c(cc2CC12Cc1cc4c(cc1C2=O)CCC4)CCCC3 (stereo not given) | > 200 | > 200 | 
C=C(C)[C@@H]1CC[C@]2(COC(=O)CC3(CC(=O)O)CCCC3)CC[C@]3(C)[C@H](CC[C@@H]4[C@@]5(C)CC[C@H](OC(=O)CC6(CC(=O)O)CCCC6)C(C)(C)[C@@H]5CC[C@]43C)[C@@H]12 | > 200 | 5.89 | 
COC(=O)C1OS(=O)(=O)OC1C(=O)OC (stereo not given) | > 200 | > 200 | 
CC(=O)NNc1nc(C)c(C(/C=C/c2ccc3c(c2)OCO3)=N/Nc2ccccc2)s1 | > 56.2 | > 56.2 | 
Cc1cc(-c2ccc(N=Nc3c(N)c(C)cc(S(=O)(=O)O)c3N)c(C)c2)ccc1N=Nc1ccc(O)c(C(=O)O)c1 | 126 | > 200 | 
CCCC(C(=O)OCC)N1C(=O)c2ccccc2S1(=O)=O (stereo not given) | > 200 | 148 | 
CCOP(=O)(OCC)C(c1ccccc1)N(C(=O)NC(F)(F)F)c1cccc(F)c1 (stereo not given) | > 200 | 95.5 | 
COc1ccc(C(O)CC(O)(C(F)(F)F)C(F)(F)F)cc1 (stereo not given) | > 200 | > 100 | 
COc1ccc(/C=C2/CSC/C(=C/c3ccc(OC)c(OC)c3)C2=O)cc1OC | > 9.12 | 4.9 | 
Cc1ccc(-c2n[nH]c(=O)n2/N=C\c2ccccc2)cc1 | > 200 | 110 | 

Structure (SMILES) | EC50 [µM] | IC50 [µM] | outcome
CCOC(=O)C12CCC(c3c(C)cccc3C)(O1)C(C(=O)OC)=C2C(=O)OC (stereo not given) | > 200 | 107 | 
Cc1ccc(NC(=O)CSc2nnc(Cc3ccccc3)o2)cc1 | > 55 | > 55 | 
O=C(O)/C=N\Nc1nc2ccccc2[nH]1 | > 200 | > 200 | 
Cc1ccc2nc(C=Nc3ccc(Cl)cc3)cc(C)c2c1 |  |  | inactive
O=C(O)c1ccc2c(O)c(O)ccc2c1 | > 77.6 | 6.03 | 
CC1=NNC(=O)C1C1CC(c2c[nH]c3ccccc23)=NNC1=S (stereo not given) | > 100 | > 100 | 
CC12CC(Sc3ccccc3N1)c1ccccc1O2 (stereo not given) | > 132 | 21.4 | 
Cc1cc(C)n2c(-c3ccccc3)c(C)cc2n1 | > 110 | 17.4 | 
COc1ccc(Oc2c(OC)cc(NCCCCCN3C(=O)c4ccccc4C3=O)c3ncccc23)cc1 | > 100 | > 100 | 
Cc1ccc(-c2nnc(-c3nn(-c4ccccc4)c4nc5ccccc5nc34)o2)cc1 |  |  | inactive
CC(=O)[O-].[Mn+3].[O-]c1ccccc1C=NCCNCCN=Cc1ccccc1[O-] | > 182 | 10.5 | 
O=S(=O)(O)c1cc(N=Cc2cc(S(=O)(=O)O)c3cccnc3c2O)ccc1/C=C\c1ccc(N=Cc2cc(S(=O)(=O)O)c3cccnc3c2O)cc1S(=O)(=O)O | > 38.9 | > 38.9 | 
CCC[CH2][Sn]1([CH2]CCC)[O]C(c2ccccn2)S(=O)(=O)[O]1 (stereo not given) | > 30.9 | 0.178 | 
COc1ccc2[nH]c3c4c(ccc3c2c1)C(=O)C=CC4=O | > 93.3 | 4.47 | 
Cc1ccc(NC(=O)CC(=O)N2N=C(N3CCCCC3)CC2c2ccccc2)cc1 (stereo not given) | > 200 | > 200 | 
Cc1cccc(-c2nc3ccc([N+](=O)[O-])cc3c(=O)o2)c1 | > 200 | 30.9 | 
CCOC(=O)c1cccn1S(=O)(=O)c1cc(Cl)ccc1NC(=O)CC | 6.17 | 195 | 
CC1(C)CC(=O)c2c(oc3cc(O)c(O)cc23)C1 |  |  | inactive
O=c1ccc2ccc(OP(=O)(O)O)cc2o1 | > 200 | > 200 | 
Cc1cc(=O)[nH]c(CNC(=O)c2cccc3ccccc23)n1 | > 851 | > 851 | 
CCOC(=O)CC1(C)c2nc(NC(C)=O)sc2Cc2sc(NC(C)=O)nc21 | > 200 | 186 | 
O/N=C1/C(=C/c2ccc3c(c2)OCO3)CCCC1C(NO)c1ccc2c(c1)OCO2 (stereo not given) | > 12.6 | > 12.6 | 

Structure (SMILES) | EC50 [µM] | IC50 [µM] | outcome
O=[N+]([O-])c1cccc(C2N3CCCCC3[C@@H]3c4[nH]c5ccccc5c4CCN23)c1 (stereo not given in full) | > 18.6 | > 18.6 | 
O=[N+]([O-])C1C2C=CC(C2)[C@H]1c1ccc(Cl)cc1Cl (stereo not given in full) |  |  | inactive
CC(C)(C)C1=CC(C)(n2[nH]c(=O)n(-c3ccccc3)c2=O)C=C(C(C)(C)C)C1=O | > 200 | 97.7 | 
O=C1c2cccc(O)c2C(=O)c2c(O)cccc21 | > 30.2 | > 30.2 | 
C=C(CCC(=O)N(CCc1c[nH]c2ccccc12)C(=O)c1ccccc1CSCC)C(=O)OC | > 200 | 15.1 | 
CCOC(=O)/C(=N/Nc1ccc(Cl)cc1)N1C(=S)C=C(C)NN(C)C1=S | > 200 | > 200 | 
O=C(Nn1c(-c2ccccc2)nc2ccccc2c1=O)c1ccc([N+](=O)[O-])cc1 | > 200 | > 200 | 
COc1ccc(C)cc(=O)c1O | > 251 | 14.5 | 
COC(=O)[C@@H]1C[C@H]([Se]c2ccccc2)CN1C(=O)OCc1ccccc1 |  |  | inactive
O=C(O)CCCCCCCCCOc1ccccc1 | > 200 | 40.7 | 
CCCCC1(N=[N+]=[N-])C(=O)C2C=CC=C3c4ccccc4N(C1=O)C32 (stereo not given) |  |  | inactive
CN(C)P(=S)(CCPc1ccccc1)N(C)C (stereo not given) | > 18.2 | > 18.2 | 
C(=Nc1ccc(SSc2ccc(N=Cc3ccc4c(c3)OCO4)cc2)cc1)c1ccc2c(c1)OCO2 | > 200 | 23.4 | 
NC1CC(=O)c2sc(I)cc21 (stereo not given) | > 200 | 102 | 
S=C1NC(c2ccc(Cl)cc2)N2C(=S)NC(c3ccc(Cl)cc3)N12 (stereo not given) |  |  | inactive
NC(=O)c1cc(O)c(O)c(O)c1 | > 200 | 17 | 
ClC1(Cl)C2(Cl)C3(Cl)C4C2(Cl)C2(Cl)C4(Cl)C3(Cl)C12Cl (stereo not given) | > 200 | 33.1 | 
CCOC(=O)c1ccc(N=C2Sc3nc4ccccc4n3C2=Nc2ccc(C(=O)OCC)cc2)cc1 | > 50.1 | > 50.1 | 
Cc1cc(=O)n2[nH]nnc2n1 | > 200 | > 200 | 
O=C1OC(N=P(c2ccccc2)(c2ccccc2)c2ccccc2)C(N=P(c2ccccc2)(c2ccccc2)c2ccccc2)=C1Cl (stereo not given) | > 20 | 18.2 | 
